Legend:
[1] = target: T1, bovine pancreatic trypsin (Bos taurus, UniProt P00760); assay: Inhibition of trypsin; type: biochemical; details: measured as described for thrombin, Km=45 μM, read-out: inhibition constant Ki
T1 construct: purchased Sigma; host or cells: bovine pancreas
T1 sequence (P00760 24-246): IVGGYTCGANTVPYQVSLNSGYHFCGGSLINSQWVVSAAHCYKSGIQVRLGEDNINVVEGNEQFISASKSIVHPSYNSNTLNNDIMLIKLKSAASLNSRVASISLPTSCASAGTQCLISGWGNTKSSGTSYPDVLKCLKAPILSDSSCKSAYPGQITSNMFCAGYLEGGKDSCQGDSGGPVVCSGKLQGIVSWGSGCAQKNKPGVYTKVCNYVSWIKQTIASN
Protocol: 10 mg bovine pancreatic trypsin (Sigma) was dissolved in […] hydrochloric acid and stored in a refrigerator 20 μl thereof was admixed with 980 ul 1 mM hydrochloric acid. 25 μl thereof was used for each measurement. The measurement was carried out as described for thrombin. Km=45 μM.

human thrombin = target: T2, human thrombin (Homo sapiens, UniProt P00734); assay: Thrombin inhibition, kinetic measurement with substrate S-2238; type: biochemical; details: pH 7 5, 25° C., substrate H-(D)-Phe-Pro-Arg-pNA
T2 construct: purchased Sigma
Protocol: The kinetic measurements were carried out in 0 1 M phosphate buffer which contained 0 2 M sodium chloride and 0 5 % polyethylene glycol 6000 at a pH=7 5 and 25° C. using the substrate H-(D)-Phe-Pro-Arg-pNA (S-2238 Kabi) and human thrombin (Sigma specific activity=2150 NIH-units/mg) in polystyrene semimicrocuvettes in a total volume of 1 ml
Since the measurement curves obtained in both experiments were linear and parallel, the active substance of formula (I) is a rapid thombin inhibitor. The inhibition constant Ki was determined as follows The substrate was added at concentrations of 100 μM. 50 μM. 30 μM, 20 μM and at each substrate concentration a measurement was carried out without inhibitor and three measurements were carried out in the presence of various concentrations of the inhibitor of formula (I). The reactions were started by addition of thrombin. The increase in absorbance at 405 nm caused by the formation of p-nitroanilide was monitored for a time period of 12 min. Measurement points (time versus absorbance) were transferred to a PC at intervals of 20 sec. […] From one measurement series (constant inhibitor concentration, variable substrate concentrations) Km′ and Vmax were determined by a non-linear fit to the equation [formula]
Finally Ki was determined from the total series of measurements by non-linear fit to the equation [formula]

[2] = target: isolated activated GpIIb/IIIa receptor (Homo sapiens, UniProt P05106+P08514); assay: GpIIb/IIIa fibrinogen ELISA; details: fibrinogen binding to coated GpIIb/IIIa receptor; read-out: gpIIb/IIIa-Inhibition IC50
Protocol: The GpIlb/Illa fibrinogen Elisa is a modification of assays which are described in the following literature: Nachman, R. L. & Leung, L. L. K. (1982): J. Clin. Invest. 69: 263-269 and Wright, P. S. et al. (1993): Biochem. J. 293:263-267.
Microtitre plates were coated overnight with 2 μg/ml isolated activated GpIIb/IIIa receptor. After unbound receptor had been removed by washing several times the surface of the plates is blocked with 1% casein and it is washed again. The test substance is added at the required concentrations and the plates are incubated for 10 minutes while shaking. The natural ligand of the gpIIb/IIIa receptor, fibrinogen, is added. After incubating for 1 hour unbound fibrinogen is removed by washing several times and the bound fibrinogen is determined by means of a peroxidase-conjugated, anti-fibrinogen monoclonal antibody by measuring the optical density at 405 nm in an ELISA instrument. The inhibition of a fibrinogen-GpIIb/IIIa interaction results in a low optical density. The IC50 value was determined by a concentration/effect curve.

horse thrombin = assay: Thrombin time (citrate plasma, sphere coagulometer); type: biochemical; details: control thrombin time ca 24 seconds
Protocol: A common test in clinical coagulation diagnostics is the thrombin time. This parameter detects the action of thrombin on fibrinogen and the formation of blood clots. Inhibitors of thrombin result in an increased thrombin time
In order to obtain plasma 9 parts fresh blood from healthy donors are mixed with one part sodium citrate solution (0 11 mol/l) and centrifuged at ca 3000 rpm for 10 min at room temperature, The plasma was removed by pipette and can be stored for ca 8 h at room temperature.
200 μl citrate plasma was incubated for 2 min at 37° C. in a sphere coagulometer (KC10 from the Amelung-Company). 10 μl dimethylsulfoxide (DMSO) or a solution of the active substance in DMSO was added to 190 μl preheated thrombin reagent (Boehringer Mannheim, GmbH. contains ca. 3 U/ml horse thrombin and […]) A stopwatch was started when this 200 μl solution was added to the plasma and the time point at which coagulation starts was determined In the control measurements the thrombin time was ca 24 seconds and was increased by the compound of example 3 depending on the concentration (test concentration/increase of thrombin time 5 μM>300*sec: 0 5 μM/96 sec. 0 05 μM/9 sec) [* the experiment was stopped after 5 minutes]

Chain of isolated activated GpIIb/IIIa receptor (P08514 32-887 limits assumed): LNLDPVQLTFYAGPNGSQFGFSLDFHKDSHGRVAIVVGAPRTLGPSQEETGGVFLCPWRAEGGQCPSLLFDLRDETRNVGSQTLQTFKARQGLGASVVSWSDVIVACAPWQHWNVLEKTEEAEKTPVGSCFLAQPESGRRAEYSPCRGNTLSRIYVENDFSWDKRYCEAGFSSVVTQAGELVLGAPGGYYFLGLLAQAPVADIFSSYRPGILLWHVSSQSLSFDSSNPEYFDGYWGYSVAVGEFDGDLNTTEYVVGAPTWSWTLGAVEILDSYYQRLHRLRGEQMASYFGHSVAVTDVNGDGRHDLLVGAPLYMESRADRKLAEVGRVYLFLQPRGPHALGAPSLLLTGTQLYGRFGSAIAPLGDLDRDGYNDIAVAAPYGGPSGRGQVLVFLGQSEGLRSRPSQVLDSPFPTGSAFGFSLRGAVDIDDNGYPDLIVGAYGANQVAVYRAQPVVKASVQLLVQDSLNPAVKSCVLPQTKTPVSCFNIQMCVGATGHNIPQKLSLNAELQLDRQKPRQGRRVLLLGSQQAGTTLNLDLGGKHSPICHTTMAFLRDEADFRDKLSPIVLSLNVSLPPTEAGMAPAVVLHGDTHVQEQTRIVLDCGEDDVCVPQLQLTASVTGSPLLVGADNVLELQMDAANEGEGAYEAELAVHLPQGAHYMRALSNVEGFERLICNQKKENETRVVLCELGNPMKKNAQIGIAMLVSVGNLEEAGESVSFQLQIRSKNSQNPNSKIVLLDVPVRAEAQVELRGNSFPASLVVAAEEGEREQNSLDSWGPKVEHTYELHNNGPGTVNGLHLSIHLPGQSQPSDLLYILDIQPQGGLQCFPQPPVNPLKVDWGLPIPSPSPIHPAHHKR
Chain of isolated activated GpIIb/IIIa receptor (P08514 891-1039 partner limits assumed): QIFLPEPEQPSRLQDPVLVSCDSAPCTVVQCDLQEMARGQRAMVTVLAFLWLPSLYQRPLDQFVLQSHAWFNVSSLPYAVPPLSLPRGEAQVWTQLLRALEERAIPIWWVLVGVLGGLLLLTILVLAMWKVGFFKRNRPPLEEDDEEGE
Chain of isolated activated GpIIb/IIIa receptor (P05106 27-788): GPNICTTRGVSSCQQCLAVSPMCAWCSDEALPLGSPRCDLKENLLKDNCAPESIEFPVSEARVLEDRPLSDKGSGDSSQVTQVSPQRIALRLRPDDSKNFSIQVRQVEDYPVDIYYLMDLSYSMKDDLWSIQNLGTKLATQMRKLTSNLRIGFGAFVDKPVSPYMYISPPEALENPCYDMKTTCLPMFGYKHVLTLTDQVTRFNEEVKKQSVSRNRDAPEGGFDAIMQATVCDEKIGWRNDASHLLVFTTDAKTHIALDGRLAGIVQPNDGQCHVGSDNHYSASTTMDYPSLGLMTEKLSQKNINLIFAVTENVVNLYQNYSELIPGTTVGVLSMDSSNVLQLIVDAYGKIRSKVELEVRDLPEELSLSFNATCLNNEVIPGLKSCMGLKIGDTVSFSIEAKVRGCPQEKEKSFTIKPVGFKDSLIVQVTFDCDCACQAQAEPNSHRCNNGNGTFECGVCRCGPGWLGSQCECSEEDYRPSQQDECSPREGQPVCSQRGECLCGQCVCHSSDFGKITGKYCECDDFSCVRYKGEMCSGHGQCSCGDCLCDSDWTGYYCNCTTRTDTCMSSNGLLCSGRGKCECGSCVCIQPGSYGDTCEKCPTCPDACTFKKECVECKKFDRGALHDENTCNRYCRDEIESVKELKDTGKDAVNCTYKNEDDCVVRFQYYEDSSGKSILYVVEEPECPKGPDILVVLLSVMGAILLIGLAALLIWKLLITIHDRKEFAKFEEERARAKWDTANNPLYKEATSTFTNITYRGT

`N=C(N)N1CC=C(CCNC(=O)[C@@H]2C[C@@H]3CC[C@@H](O)C[C@@H]3N2C(=O)[C@@H](Cc2ccccc2)NC(=O)[C@H](O)Cc2ccccc2)C1` [Example 1, D-Pla-D-Phe-L-Choi-Adc] was tested, and the Ki [1] was 0.1 µM.

In the case of `CN[C@H](Cc1ccccc1)C(=O)N1CCC[C@H]1C(=O)NCCC1=CCN(C(=N)N)C1` [Example 4], the “thrombin inhibition (in words)” value (human thrombin) is reported as “inhibits thrombin”.

Molecule `N=C(N)N1CC=C(CC(N)C(=O)NCC(=O)N[C@@H](CC(=O)O)C(=O)N[C@@H](Cc2ccccc2)C(N)=O)C1` (stereo partly drawn) [Example 11, Ada-Gly-Asp-Phe-NH2] has an IC50 [2] of 12.8 µM.

“HOOC—CH2-D-Cha-(N-cyclopentyl)-Gly-Adc [Example 3]” was tested, and the “increase of thrombin time” value (horse thrombin; test concentration 0 05 μM) was 9 s, the “increase of thrombin time” value (horse thrombin; test concentration 0 5 μM) was 96 s and the “increase of thrombin time” value (horse thrombin; test concentration 5 μM, experiment stopped after 5 minutes) was over 300 s.

From patent US20020026034A1, “3-AMINOETHYL-N-AMIDINO-2,5-DIHYDROPYRROLE DERIVATIVES HAVING ARGININE MIMETIC PROPERTIES” (priority 1995, published 2002)
